The target in one experiment is DDR1 (Homo sapiens (Human), UniProt Q08345). The experiment in a line: DDR1 LanthaScreen Europium Kinase Binding assay. The procedure: (§1) DDR1 and DDR2 binding assays were performed using Life Technologies LanthaScreen™ Europium Kinase Binding assay. The compounds were incubated with 5 nM DDR1 (Carna Biosciences) or 5 nM DDR2 (Life Technologies) for 1 hour at rt in white 384-well OptiPlate (PerkinElmer), containing 20 nM or 10 nM Kinase Tracer 178 respectively and 2 nM Europium labelled anti-GST antibody (Life Technologies) in assay buffer (50 mM HEPES pH 7.5, 10 mM MgCI2, 1 mM EGTA and 0.01% BRIJ35). The ratio of fluorescence emission 665 nm/615 nm after excitation at 340 nm was obtained using the Tecan Spark 20M plate reader. IC50 values were determined in GraphPad Prism 7.0 software, using 4 parameter model: log(inhibitor) vs. response. IC50 values were converted in Ki using the Cheng-Prusoff equation (Ki=IC50/(1+[Tracer]/Kd).
(§2) Compounds C1 and C2 were tested in the same binding assay described above.
For orientation: In TR-FRET formats the signal depends on donor and acceptor labels being close together.

The target in a further experiment is DDR2 (Homo sapiens (Human), UniProt Q16832). The experiment in a line: DDR2 LanthaScreen Europium Kinase Binding assay. On the procedure: as §1, §2
The mark [1] stands for this setting: binding, 5 nM DDR1, 20 nM Kinase Tracer 178, 1 hour at rt, Ki from IC50 by Cheng-Prusoff, read-out: Ki DDR1.
Where [2] appears, read: binding, 5 nM DDR2, 10 nM Kinase Tracer 178, 1 hour at rt, Ki from IC50 by Cheng-Prusoff, read-out: Ki DDR2.
[3] abbreviates: same binding assay, numeric values, read-out: DDR1 Ki.

As a reminder, the Ki is the equilibrium dissociation constant of an inhibitor or competing ligand from its target.

Where two headings read alike, the source gives them in different places. Bounds are passed on as bounds.

Chain of DDR1 (Q08345 19-913): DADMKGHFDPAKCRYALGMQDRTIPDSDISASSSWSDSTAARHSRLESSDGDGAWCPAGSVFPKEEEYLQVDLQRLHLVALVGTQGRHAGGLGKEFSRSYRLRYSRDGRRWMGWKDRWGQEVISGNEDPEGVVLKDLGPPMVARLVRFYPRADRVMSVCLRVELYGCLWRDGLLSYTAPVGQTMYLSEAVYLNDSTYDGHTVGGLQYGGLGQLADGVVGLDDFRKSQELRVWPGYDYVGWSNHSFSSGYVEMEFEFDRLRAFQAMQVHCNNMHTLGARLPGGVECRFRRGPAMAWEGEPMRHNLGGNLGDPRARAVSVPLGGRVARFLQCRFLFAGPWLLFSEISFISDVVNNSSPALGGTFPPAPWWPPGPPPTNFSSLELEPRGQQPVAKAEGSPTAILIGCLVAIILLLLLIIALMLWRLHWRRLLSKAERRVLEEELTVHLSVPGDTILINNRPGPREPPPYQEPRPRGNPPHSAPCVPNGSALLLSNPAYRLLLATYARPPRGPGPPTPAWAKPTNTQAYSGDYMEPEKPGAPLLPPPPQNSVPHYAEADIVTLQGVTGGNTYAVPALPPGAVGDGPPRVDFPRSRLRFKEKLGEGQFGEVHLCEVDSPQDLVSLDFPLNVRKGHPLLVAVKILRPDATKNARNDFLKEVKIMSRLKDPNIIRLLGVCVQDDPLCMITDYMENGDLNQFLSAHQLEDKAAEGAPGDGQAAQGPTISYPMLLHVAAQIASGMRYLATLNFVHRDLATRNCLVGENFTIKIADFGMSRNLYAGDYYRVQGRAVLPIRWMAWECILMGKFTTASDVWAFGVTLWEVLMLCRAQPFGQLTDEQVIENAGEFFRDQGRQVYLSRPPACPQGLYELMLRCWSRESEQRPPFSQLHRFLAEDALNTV
Chain of DDR2 (Q16832 22-855): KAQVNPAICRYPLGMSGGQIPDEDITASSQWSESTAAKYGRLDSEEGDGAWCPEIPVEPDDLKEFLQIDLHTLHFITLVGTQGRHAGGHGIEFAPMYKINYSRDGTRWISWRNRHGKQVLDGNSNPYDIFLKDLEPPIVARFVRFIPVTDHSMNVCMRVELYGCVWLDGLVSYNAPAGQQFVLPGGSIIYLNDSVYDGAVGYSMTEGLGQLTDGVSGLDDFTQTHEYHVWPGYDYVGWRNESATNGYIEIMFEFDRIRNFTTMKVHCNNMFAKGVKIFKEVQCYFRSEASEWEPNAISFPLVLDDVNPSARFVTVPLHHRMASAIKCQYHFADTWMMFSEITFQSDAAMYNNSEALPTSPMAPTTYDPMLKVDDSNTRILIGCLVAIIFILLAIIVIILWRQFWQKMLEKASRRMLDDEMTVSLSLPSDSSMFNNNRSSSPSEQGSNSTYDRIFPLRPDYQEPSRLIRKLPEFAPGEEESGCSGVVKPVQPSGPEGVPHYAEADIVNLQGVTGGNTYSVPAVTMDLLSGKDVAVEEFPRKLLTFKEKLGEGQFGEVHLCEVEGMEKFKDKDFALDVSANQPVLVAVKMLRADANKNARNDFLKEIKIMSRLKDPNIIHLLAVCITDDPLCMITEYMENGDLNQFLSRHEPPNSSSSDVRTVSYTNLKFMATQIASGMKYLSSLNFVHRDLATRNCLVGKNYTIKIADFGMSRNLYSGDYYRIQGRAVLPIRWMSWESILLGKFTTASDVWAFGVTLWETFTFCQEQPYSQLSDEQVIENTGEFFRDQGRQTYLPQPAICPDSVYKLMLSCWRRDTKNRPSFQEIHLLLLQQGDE

Consider `Cc1ccc(C(=O)Nc2cccc(C(F)(F)F)c2)cc1C1CCN(c2ccnc(C(N)=O)c2)C1` (racemic) [Example 53, 4-(3-(2-methyl-5-((3-(trifluoromethyl)phenyl)carbamoyl)phenyl)pyrrolidin-1-yl)picolinamide], for which the Ki at DDR1 (setting [1]) was less than 0.01 µM; on DDR2 (setting [2]), less than 10 nM.

`Cc1ccc(C(=O)Nc2cccc(C(F)(F)F)c2)cc1C1CCN(c2ccnc(C(N)=O)c2)C1` (single isomer, unassigned) [Example 54, 4-(3-(2-methyl-5-((3-(trifluoromethyl)phenyl)carbamoyl)phenyl)pyrrolidin-1-yl)picolinamide]: the Ki at DDR1 (setting [1]) was less than 0.01 µM; on DDR2 (setting [2]), less than 10 nM.

Regarding `Cc1ccc(C(=O)Nc2cccc(C(F)(F)F)c2)cc1C1CCN(c2ccnc(C(N)=O)c2)C1` (single isomer, unassigned) [Example 55, 4-(3-(2-methyl-5-((3-(trifluoromethyl)phenyl)carbamoyl)phenyl)pyrrolidin-1-yl)picolinamide], the Ki fell in the range of 0.01 to 0.025 µM at DDR1 (setting [1]) and 25 to 60 nM at DDR2 (setting [2]).

For `Cc1ccc(C(=O)Nc2cccc(C(F)(F)F)c2)cc1C1CN1c1cccnc1` (centres unmarked) [Compound C1, 4-methyl-3-(1-(pyridin-3-yl)aziridin-2-yl)-N-(3-(trifluoromethyl)phenyl)benzamide, reference compound], the Ki at DDR1 (setting [3]) came out at 0.174 µM; at DDR2 (DDR2 Ki (nM), same binding assay, numeric values), 305 nM.

For `Cc1ccc(C(=O)Nc2cccc(C(F)(F)F)c2)cc1C1CCN(Cc2cccnc2)C1` (centres unmarked) [Compound C2, 4-methyl-3-(1-(pyridin-3-ylmethyl)pyrrolidin-3-yl)-N-(3-(trifluoromethyl)phenyl)benzamide, reference compound], the Ki at DDR1 (setting [3]) stood at 0.571 µM; at DDR2 (same binding assay, numeric values, read-out: DDR2 Ki), 764 nM.

Consider `CNC(=O)c1cc(N2CCC(c3cc(C(=O)Nc4cccc(C(F)(F)F)c4)ccc3C)C2)ccn1` (centres unmarked) [Example 1, N-methyl-4-(3-(2-methyl-5-((3-(trifluoromethyl)phenyl)carbamoyl)phenyl)pyrrolidin-1-yl)picolinamide], for which the Ki at DDR1 (setting [1]) is less than 0.01 µM; on DDR2 (setting [2]) it was less than 10 nM.

Take `Cc1ccc(C(=O)Nc2cccc(C(F)(F)F)c2)cc1C1CCN(c2cccnc2)C1` (centres unmarked) [Example 2, 4-methyl-3-(1-(pyridin-3-yl)pyrrolidin-3-yl)-N-(3-(trifluoromethyl)phenyl)benzamide]: the Ki at DDR1 (setting [1]) was less than 0.01 µM; on DDR2 (setting [2]) it was less than 10 nM.

With `COc1cncc(N2CCC(c3cc(C(=O)Nc4cccc(C(F)(F)F)c4)ccc3C)C2)c1` (centres unmarked) [Example 3, 3-(1-(5-methoxypyridin-3-yl)pyrrolidin-3-yl)-4-methyl-N-(3-(trifluoromethyl)phenyl)benzamide], the Ki at DDR1 (setting [1]) is less than 0.01 µM; on DDR2 (setting [2]), less than 10 nM.

As for `Cc1ccc(C(=O)Nc2cccc(C(F)(F)F)c2)cc1C1CCN(c2cncc(C#N)c2)C1` (centres unmarked) [Example 4, 3-(1-(5-cyanopyridin-3-yl)pyrrolidin-3-yl)-4-methyl-N-(3-(trifluoromethyl)phenyl)benzamide], the Ki on DDR1 (setting [1]) was 0.01 to 0.025 µM; at DDR2 (setting [2]), 25 to 60 nM.

On to `Cc1ccc(C(=O)Nc2cccc(C(F)(F)F)c2)cc1C1CCN(c2cncc(OCCN3CCOCC3)c2)C1` (centres unmarked) [Example 5, 4-methyl-3-(1-(5-(2-morpholinoethoxy)pyridin-3-yl)pyrrolidin-3-yl)-N-(3-(trifluoromethyl)phenyl)benzamide], for which the figures for the Ki on DDR1 (setting [1]) and on DDR2 (setting [2]) were less than 0.01 µM and 25 to 60 nM, respectively.

As for `Cc1ccc(C(=O)Nc2cccc(C(F)(F)F)c2)cc1C1CCN(c2cncc(OCCN3CCN(C)CC3)c2)C1` (centres unmarked) [Example 6, 4-methyl-3-(1-(5-(2-(4-methylpiperazin-1-yl)ethoxy)pyridin-3-yl)pyrrolidin-3-yl)-N-(3-(trifluoromethyl)phenyl)benzamide], the Ki was less than 0.01 µM at DDR1 (setting [1]) and less than 10 nM on DDR2 (setting [2]).

In the case of `Cc1ccc(C(=O)Nc2cccc(C(F)(F)F)c2)cc1C1CCN(c2cncc(C(=O)NCCN(C)C)c2)C1` (centres unmarked) [Example 7, N-(2-(dimethylamino)ethyl)-5-(3-(2-methyl-5-((3-(trifluoromethyl)phenyl)carbamoyl)phenyl)pyrrolidin-1-yl)nicotinamide], the figures for the inhibition constant (Ki) on DDR1 (setting [1]) and at DDR2 (setting [2]) were less than 0.01 µM and less than 10 nM, respectively.

With `Cc1ccc(C(=O)Nc2cccc(C(F)(F)F)c2)cc1C1CCN(c2cncc(N3CCOCC3)c2)C1` (centres unmarked) [Example 8, 4-methyl-3-(1-(5-morpholinopyridin-3-yl)pyrrolidin-3-yl)-N-(3-(trifluoromethyl)phenyl)benzamide], the Ki on DDR1 (setting [1]) is less than 0.01 µM; on DDR2 (setting [2]), 25 to 60 nM.

On to `COCCNC(=O)c1cncc(N2CCC(c3cc(C(=O)Nc4cccc(C(F)(F)F)c4)ccc3C)C2)c1` (centres unmarked) [Example 9, N-(2-methoxyethyl)-5-(3-(2-methyl-5-((3-(trifluoromethyl)phenyl)carbamoyl)phenyl)pyrrolidin-1-yl)nicotinamide], for which the Ki on DDR1 (setting [1]) was less than 0.01 µM; on DDR2 (setting [2]), 10 to 25 nM.

`CNC(=O)c1cncc(N2CCC(c3cc(C(=O)Nc4cccc(C(F)(F)F)c4)ccc3C)C2)c1` (centres unmarked) [Example 10, N-methyl-5-(3-(2-methyl-5-((3-(trifluoromethyl)phenyl)carbamoyl)phenyl)pyrrolidin-1-yl)nicotinamide]: the Ki was less than 0.01 µM on DDR1 (setting [1]) and 10 to 25 nM at DDR2 (setting [2]).

On to `Cc1ccc(C(=O)Nc2cccc(C(F)(F)F)c2)cc1C1CCN(c2cncc(CN3CCOCC3)c2)C1` (centres unmarked) [Example 11, 4-methyl-3-(1-(5-(morpholinomethyl)pyridin-3-yl)pyrrolidin-3-yl)-N-(3-(trifluoromethyl)phenyl)benzamide], for which the figures for the Ki at DDR1 (setting [1]) and on DDR2 (setting [2]) were less than 0.01 µM and 10 to 25 nM, respectively.

As to `Cc1ccc(C(=O)Nc2cccc(C(F)(F)F)c2)cc1C1CCN(c2cncc(N3CCN(C)CC3)c2)C1` (centres unmarked) [Example 12, 4-methyl-3-(1-(5-(4-methylpiperazin-1-yl)pyridin-3-yl)pyrrolidin-3-yl)-N-(3-(trifluoromethyl)phenyl)benzamide], the Ki on DDR1 (setting [1]) is less than 0.01 µM; on DDR2 (setting [2]), 10 to 25 nM.

On to `Cc1ccc(C(=O)Nc2cccc(C(F)(F)F)c2)cc1C1CCN(c2cncc(Br)c2)C1` (centres unmarked) [Example 13, 3-(1-(5-bromopyridin-3-yl)pyrrolidin-3-yl)-4-methyl-N-(3-(trifluoromethyl)phenyl)benzamide], for which the Ki fell in the range of 0.01 to 0.025 µM on DDR1 (setting [1]) and 25 to 60 nM at DDR2 (setting [2]).

Consider `Cc1ccc(C(=O)Nc2cccc(C(F)(F)F)c2)cc1C1CCN(C(=O)c2cccnc2)C1` (centres unmarked) [Example 14, 4-methyl-3-(1-nicotinoylpyrrolidin-3-yl)-N-(3-(trifluoromethyl)phenyl)benzamide], for which the Ki on DDR1 (setting [1]) was less than 0.01 µM; at DDR2 (setting [2]), less than 10 nM.

Take `Cc1ccc(C(=O)Nc2cccc(C(F)(F)F)c2)cc1[C@H]1CCN(c2cccnc2)C1` [Example 15, (R)-4-methyl-3-(1-(pyridin-3-yl)pyrrolidin-3-yl)-N-(3-(trifluoromethyl)phenyl)benzamide]: the Ki on DDR1 (setting [1]) was 0.01 to 0.025 µM; at DDR2 (setting [2]), 25 to 60 nM.

Turning to `Cc1ccc(C(=O)Nc2cccc(C(F)(F)F)c2)cc1[C@@H]1CCN(c2cccnc2)C1` [Example 16, (S)-4-methyl-3-(1-(pyridin-3-yl)pyrrolidin-3-yl)-N-(3-(trifluoromethyl)phenyl)benzamide], the Ki at DDR1 (setting [1]) was less than 0.01 µM; at DDR2 (setting [2]), less than 10 nM.

Turning to `Cc1ccc(C(=O)Nc2cccc(C(F)(F)F)c2)cc1C1CCN(c2cncc(C(N)=O)c2)C1` (centres unmarked) [Example 17, 5-(3-(2-methyl-5-((3-(trifluoromethyl)phenyl)carbamoyl)phenyl)pyrrolidin-1-yl)nicotinamide], the Ki on DDR1 (setting [1]) is less than 0.01 µM; at DDR2 (setting [2]), 10 to 25 nM.

(Values after patent US20240425482A1, “PYRROLIDINE DERIVATIVES AS DDRS INHIBITORS” (CHIESI FARMACEUTICI S.P.A., priority 2021, published 2024).)
